From a melting point compilation (Tetko et al.; mined from patent text by program, amines drawn as free bases though some values may be those of a salt) come the findings set out here.

The term melting point denotes the temperature of the solid-liquid transition. With `CCCCCCCCCCCCCCCCCNC(=O)N(C)CC(O)C(O)C(O)C(O)CO` (centres undefined), the melting point lay within 94 to 96 °C.
Then `Cc1c(Cl)ccc([N+](=O)[O-])c1C#N`, with 97 to 98 °C.
As to `CCCC(=O)N(Cc1ccc(-c2ccccc2C#N)cc1)c1nn(C)cc1C(=O)OCC`, the melting point lay in the range of 118 to 119 °C.
In turn, `O=C(O)CCCC(=O)c1ccc2c(c1)CCO2` gave a melting point of 131 to 133 °C.
The compound `c1ccc(COc2cccc3c2NCC3)cc1` had a melting point of 58 to 60 °C.
Then `COC=CC=C(C#N)C#N`, with 74 to 76 °C; and `COc1ccc(C(=O)NCc2cccc3c2C(=O)N(C2CCC(=O)NC2=O)C3=O)cc1` (centres undefined), with 193 to 195 °C; and `CC(C)(C)C(=O)C=Cc1ccc2c(c1)OCO2`, with 94 to 96 °C.
Then `CCC(=O)N1N=C(c2ccc(N)cc2)c2cc(Br)ccc2CC1C` (centres undefined), with 99 to 102 °C; and `CC(CCC(N)=O)C1CC=C2C3=C(CCC21C)C1(C)CCC(O)C(C)(C)C1CC3` (centres undefined), with 233 to 235 °C.
Then `COc1cc(C(C)C)nn1C`, with 114 to 115 °C; and `CC(O)C#Cc1cc(Cl)cc2nc(-c3ccccc3Cl)oc12` (centres undefined), with 129 to 131 °C; and `CON(CCCc1ccc(Cl)c(Cl)c1)C(=O)C1=C(O)C(=O)N(C)C1`, with 106 to 108 °C.
Consider `Oc1ccc(-c2ncc3ncc(-c4cccnc4)cc3n2)cc1`, for which the melting point is greater than 268 °C.
On to `CC(C)(C)OC(=O)COc1ccc(C=O)cc1`, for which the melting point was 56 to 57 °C.
Take `CCNCCC(=O)Nc1ccc2c(c1)C(=O)c1cc(NC(=O)CCNCC)ccc1C2=O`: the melting point came to 181 °C.
Then `Cc1nc(-c2ccccc2F)n(O)c1-c1cccnc1`, with 65 to 75 °C; and `COC(=O)Cc1ccc(OCC(C)NCC(O)c2cccc(Cl)c2)c(O)c1` (centres undefined), with 68 °C.
`CC(=O)c1cc2c(cc1NC(=O)C(O)(CC(C)(C)c1ccccc1)C(F)(F)F)COC2=O` (centres undefined) showed a melting point of 195 to 199 °C.
Then `COC(=O)c1sc2cccc(OC)c2c1N(C)C`, with 69 to 73 °C.
Consider `CC(C)(C)OC(=O)c1nn(-c2ccc(Cl)cc2Cl)c(-c2ccc(Cl)cc2)c1CC#N`, for which the melting point came to 168 °C.
Then `COc1cccc([C@H]2O[C@H](CC(=O)Nc3nc(C(=O)O)cs3)C(=O)N(CC(C)(C)CO)c3ccc(Cl)cc32)c1OC`, with 277 to 278 °C.
Then `COc1ccc(-c2nnc(C)nc2-c2ccc(OC)cc2)cc1`, with 109 to 113 °C; and `CN1[C@H]2CC[C@@H]1[C@H](C=O)[C@@H](c1ccc(Cl)c(Cl)c1)C2`, with 131 to 135 °C; and `CCCCc1nc(Cl)c(CO)n1Cc1ccc(N)cc1`, with 101 to 103 °C.
Then `Cc1ccc(NC(=O)c2cccc(C(F)(F)F)c2)cc1Br`, with 153 to 155 °C.
Regarding `O=C1Nc2nnccc2C(=O)C1c1c(F)cc(F)cc1F` (centres undefined), the melting point was greater than 330 °C.
Compound `C=C(C)C(=O)OCc1ccc(OC2CCCCO2)cc1` (centres undefined) displayed a melting point of 36 to 36.7 °C.
Then `O=C1c2ccccc2S(=O)(=O)N1CCNCC1COc2ccccc2O1` (centres undefined), with 181 °C; and `COc1ccnc(C(=O)N[C@H]2COC(=O)[C@H](Cc3ccccc3)[C@@H](O)[C@H](C)OC2=O)c1OCc1ccccc1`, with 110 to 114 °C.
With `COc1ccc(O)c2c1SC1CC3C(NC(=S)c4ccccc4)C(O)=C(C(N)=O)C(=O)C3(O)C(O)=C1C2=O` (centres undefined), the melting point is 223 °C.
Turning to `O=C1NC(=O)C2(C=COc3c2ccc2ncccc32)N1` (centres undefined), the melting point stood at 330 °C.
Take `CCNC(=O)c1cc2c(nc(C)n2C)c2c1CCC1(Cc3ccccc3C1)N2`: the melting point lay within 223 to 224 °C.
`CCCC(CCC)Nc1cc(C(=O)OC)ccc1N1C(=O)CCC1(CO)CO` came in with a melting point of 139 to 140 °C.
Then `CSc1ccc(-c2cc(C(F)F)nn2-c2ccc(C(C)=O)cc2)cc1`, with 143 to 145 °C; and `CC1(C)CC(=O)c2c(ncc3[nH]c4ccccc4c23)C1`, with 224 to 225 °C.
Then `OC(COc1ccc(-c2ccccc2I)cc1)CN1CCCC1` (centres undefined), with 72 to 76 °C; and `CCNS(=O)(=O)CC(=O)C1=C(C)NC(C)=C(C(=O)OC(C)C)C1c1cccc([N+](=O)[O-])c1` (centres undefined), with 140 to 142 °C.
The compound `Cc1cc(CC(=O)O)cc(Cc2nc3c(F)c(F)cc(F)c3s2)c1` yielded a melting point of 127 to 129 °C.
As for `COc1cc2c(cc1OC(C)C)OC(C)(C)C(Cl)=C2Cl`, the melting point was in the range of 80 to 85 °C.
Then `COc1cc(C=O)ccc1OCCCCl`, with 53 to 55 °C.
Then `O=C(Nc1cc(Cl)c(O)c(Cl)c1)c1ccccc1O`, with 217 to 219 °C.
`O=C(c1ccc(F)cc1)c1nccc(O)c1O` returned a melting point of 249 to 251 °C.
Then `CS(=O)(=O)Nc1ccc(Cc2n[nH]c3c2c(=O)n(-c2ccccc2)c2ncccc32)cc1`, with 306 to 307 °C; and `CNC(=O)C1CCN(S(=O)(=O)c2ccc(Cl)c(COc3cccc4c(-n5ccnc5)cc(C)nc34)c2Cl)C1` (centres undefined), with 108 °C.
With `CC(C)(C)OC(=O)NC1CCCCC1NC(=O)c1ccccn1` (centres undefined), the melting point was 78 to 79 °C.
The compound `CN1C(=O)CC[C@]2(C)c3ccc(-c4cc(F)c([N+](=O)[O-])cc4F)cc3CC[C@@H]12` displayed a melting point of 130 to 140 °C.
In turn, `Cn1c(-c2ccc(C(=N)N)cc2)nc2cc(C(=O)NCCC(=O)O)ccc21` had a melting point of 247 to 249 °C.
In the case of `COCc1csc(C(=O)C2C(=O)N(C(N)=O)c3ccc(Cl)cc32)c1` (centres undefined), the melting point was 193 to 195 °C.
Then `COC(=O)C1C=CCN2C(=O)C(CCOC3CCCCO3)(Cc3ccccc3)C(=O)N12` (centres undefined), with 113 to 114 °C; and `O=C(O)Cc1c(C(=O)c2ncc[nH]2)[nH]c2ccc(Cl)cc12`, with 253 to 254 °C.
In turn, `Nc1cc(OCc2ccccc2)c(C(=O)NC2CN3CCC2CC3)cc1Cl` (centres undefined) had a melting point of 170 to 171 °C.
Then `CCOc1ccc(-c2cc(C3CCCCC3)nc(C3CCCCC3)c2)cc1`, with 106 °C.
As for `CC1(C)Nc2cc(Cl)ccc2NC1=O`, the melting point lay in the range of 166 to 170 °C.
Then `O=C(OCCc1ccccn1)Oc1ccc([N+](=O)[O-])cc1`, with 125 to 127 °C.
Then `Cc1cc(O)c(S(C)(=O)=O)cc1C(=O)N=C(N)N`, with greater than 260 °C.
The compound `CCC(O)(c1cncc(OCc2ccc3ccccc3c2)c1)c1nccs1` (centres undefined) gave a melting point of 48 to 50 °C.
Then `COn1c(C2CCCCC2)nc2c(N)nc3ccccc3c21`, with 220 to 222 °C; and `COc1cc(C#N)ccc1-c1cc2cc(Cl)c(Cl)cc2[nH]1`, with 241 to 244 °C.
Then `CC(C)(C)NC(=O)Nc1ccc2oc3c(c2c1)CCCC3`, with 310 to 312 °C; and `Nc1cccc2c1OC1(CC1)C2=O`, with 136 °C; and `Cc1c(C)c2c(c(C)c1N)C(=O)C(C)(C)O2`, with 92 to 93 °C.
For the compound `COc1ccc(Br)cc1OCCCCCc1ccc(F)cc1`, the melting point was 46 to 47 °C.
Then `COc1ccc2c(c1)C(=O)N(c1ccc(C(C)CO)cc1)C2` (centres undefined), with 135 to 138 °C; and `CCc1[nH]n(C2CCCC2)c2nc(Cc3ccncc3)nc(=O)c1-2`, with 162 to 164 °C; and `COc1ccccc1-c1coc2c(O)c(O)ccc2c1=O`, with 220 to 222 °C.
Then `NC(=O)C1=C(NCc2ccccc2)CCCC1`, with 73 to 74 °C.
Then `COC(=O)CN(CC(F)(F)F)c1ccc(C#N)c(C(F)(F)F)c1`, with 144 to 145 °C; and `CCCCNc1cncc(C(=NCCc2ccccc2Cl)NC#N)c1`, with 122 °C; and `N#CC(=NO)c1c(F)cccc1Cl`, with 119 to 120 °C.
`C=C(C(=O)OCC)N1C(C)(C)CC(OC(=O)C=CC(=O)OC2CC(C)(C)N(C(=C)C(=O)OCC)C(C)(C)C2)CC1(C)C`: the melting point was 185 to 186 °C.
In turn, `COc1ccc2ccc(OCc3ccc4ccccc4n3)cc2c1` had a melting point of 113 to 114 °C.
With `O=C(C=Cc1ccc(F)cc1)c1ccc(C(F)(F)F)cc1`, the melting point is 89 to 92 °C.
Then `COc1ccc2cc3c(Nc4ccc(Cl)cc4Cl)c(C#N)cnc3cc2c1`, with greater than 260 °C.
